Test system: distant metastatic pancreatic cancer
Experiment: Multicenter, open-label study of Nivolumab in combination with mFFX therapy; anti-tumor effect by CT/MRI according to RECIST guideline version 1.1
Assay type: in vivo, patients
Conditions: 16 weeks after start of administration, central judgment
Experimental: The purpose of this clinical trial is to evaluate the efficacy and safety in combination of Nivolumab and mFFX therapy for patients with distant metastatic pancreatic cancer, having no history of chemotherapy. The clinical trial can evaluate the combined effect of Nivolumab and mFFX therapy.
Patients with distant metastatic pancreatic cancer, having no history of chemotherapy
Nivolumab was intravenously administered at 480 mg every 4 weeks over 30 minutes, and Nivolumab was continuously administered until falling into the prescribed criterion for discontinuing the administration of Nivolumab. No change in dose of Nivolumab is allowed. When Nivolumab and mFFX therapy were administered on the same day, Nivolumab was administered initially, and at least 30 minutes after the end of Nivolumab administration, mFFX therapy started.
Oxaliplatin was intravenously administered at 85 mg/m^2 over 2 hours, and then levofolinate was intravenously administered at 200 mg/m^2 over 2 hours. 30 minutes after the start of levofolinate administration, irinotecan was intravenously administered at 150 mg/m^2 over 1.5 hours. Further, after completion of levofolinate administration, fluorouracil was intravenously administered at 2400 mg/m^2 over 46 hours. This was set as one cycle and repeated every 2 weeks.
The anti-tumor effect was evaluated by image diagnosis using CT/magnetic resonance imaging (MRI) on chest, abdomen and pelvis, and measuring the tumor diameter in target lesion according to RECIST guideline version 1.1. The diagnosis imaging (measurement of tumor diameter and judgement of anti-tumor effect) was conducted at the following time points. […]
6 months after the first subject was enrolled, for 7 subjects in which the image diagnosis twice every 8 weeks as defined in the clinical trial protocol was completed (16 weeks after the start of administration of the drug), the effectiveness was evaluated (central judgment).

[1] = Nivolumab 480 mg i.v. every 4 weeks in combination with mFFX therapy, 7 subjects evaluated

Nivolumab was tested, and the response rate (Nivolumab 480 mg i.v. every 4 weeks in combination with mFFX therapy every 2 weeks, 7 subjects with distant metastatic pancreatic cancer, no history of chemotherapy) was 42.9%, the “CR (number of cases)” value [1] was 0 cases and the “PR (number of cases)” value [1] was 3 cases.
